Data: patent US9708278B2, “Substituted 4-benzyl-3,4-dihydro-2H-benzo[B][1,4]oxazine-2-carboxamide analogs as positive allosteric modulators of muscarinic acetycholine receptor M1” (Vanderbilt University, priority 2013, dated 2017)
Like-named read-outs stand apart in the source and are kept apart here.

Target: T1, mAChR M1 (UniProt P08482)
T1 sequence (P08482 1-460): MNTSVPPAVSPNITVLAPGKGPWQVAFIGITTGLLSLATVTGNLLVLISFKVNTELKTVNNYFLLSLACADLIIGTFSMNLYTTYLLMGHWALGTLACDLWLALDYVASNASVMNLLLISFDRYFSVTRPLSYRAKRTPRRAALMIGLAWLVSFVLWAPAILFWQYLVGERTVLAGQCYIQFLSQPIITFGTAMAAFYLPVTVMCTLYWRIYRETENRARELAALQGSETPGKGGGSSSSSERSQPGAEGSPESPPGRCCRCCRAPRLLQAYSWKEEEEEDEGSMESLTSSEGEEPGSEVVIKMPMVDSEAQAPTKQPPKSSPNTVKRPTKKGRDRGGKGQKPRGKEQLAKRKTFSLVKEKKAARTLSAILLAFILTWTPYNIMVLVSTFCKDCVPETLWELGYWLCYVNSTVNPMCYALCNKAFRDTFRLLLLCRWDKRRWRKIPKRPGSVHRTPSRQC
Assay: mAChR M1 cell-based functional assay (calcium mobilization, PAM mode)
Settings: positive allosteric modulator activity: concentration-dependent increase in the EC20 acetylcholine response, calcium flux in CHO-K1 cells stably expressing mAChR M1
Text: The calcium mobilization assay was also used to determine “efficacy”.
N-Substituted 3,4-dihydro-benzo[b][1,4]oxazine-2-carboxamide analogs were synthesized as described above. […] The compound number corresponds to the compound numbers used in Table I.

Compound `COc1ccc(CN2C[C@H](C(=O)N[C@H]3CCCC[C@@H]3O)Oc3ccccc32)cc1` (single isomer, unassigned) [Compound B9] has an EC50 (read-out: EC50) of 7.75 µM.

For `COc1ccc(CN2C[C@@H](C(=O)N[C@H]3CCCC[C@@H]3O)Oc3ccccc32)cc1` (single isomer, unassigned) [Compound B10], the EC50 (read-out: EC50) was ≥ 10 µM.

For `CC(C)C[C@@H](CO)NC(=O)[C@@H]1CN(Cc2ccc(-n3cccn3)cc2)c2ccccc2O1` (single isomer, unassigned) [Compound B19], the EC50 (read-out: EC50) was 3.69 µM.

`CC(C)C[C@@H](CO)NC(=O)[C@H]1CN(Cc2ccc(-n3cccn3)cc2)c2ccccc2O1` (single isomer, unassigned) [Compound B20] showed an EC50 (read-out: EC50) of 2.07 µM.

In the case of `O=C(N[C@H]1CCCC[C@@H]1O)C1CN(Cc2ccc(-n3cccn3)cc2)c2ccccc2O1` (single isomer, unassigned) [Compound B29], the EC50 (read-out: EC50) is reported as 0.573 µM.

With `O=C(N[C@H]1CCCC[C@@H]1O)C1CN(Cc2ccc(-n3cccn3)cc2)c2ccccc2O1` (single isomer, unassigned) [Compound B41] the EC50 (read-out: EC50) was 0.199 µM.

Work on `O=C(N[C@H]1CCCC[C@@H]1O)C1CN(Cc2ccc(-n3cccn3)cc2)c2ccccc2O1` (stereo partly drawn) [Compound B1, 4-(4-(1H-pyrazol-1-yl)benzyl)-N-((1S,2S)-2-hydroxycyclohexyl)-3,4-dihydro-2H-benzo[b][1,4]oxazine-2-carboxamide] yielded an EC50 (read-out: EC50) of 0.302 µM.

`O=C(Nc1ncccc1O)C1CN(Cc2ccc(-n3cccn3)cc2)c2ccccc2O1` (stereo not drawn) [Compound B2, 4-(4-(1H-pyrazol-1-yl)benzyl)-N-(3-hydroxypyridin-2-yl)-3,4-dihydro-2H-benzo[b][1,4]oxazine-2-carboxamide] was tested, and the EC50 (read-out: EC50) was 0.543 µM.

In the case of `O=C(NC1COC1)C1CN(Cc2ccc(-n3cccn3)cc2)c2ccccc2O1` (stereo not drawn) [Compound B3], the EC50 (read-out: EC50) is reported as ≥ 10 µM.

For `O=C(N[C@H]1CCCC[C@@H]1O)C1CN(Cc2c(F)cc(Br)cc2F)c2ccccc2O1` (stereo partly drawn) [Compound B4, 4-(4-bromo-2,6-difluorobenzyl)-N-((1S,2S)-2-hydroxycyclohexyl)-3,4-dihydro-2H-benzo[b][1,4]oxazine-2-carboxamide], the EC50 (read-out: EC50) was > 30 µM.

In the case of `COc1ccc(CN2CC(C(=O)N[C@H]3CCCC[C@@H]3O)Oc3ccccc32)cc1` (stereo partly drawn) [Compound B5], the EC50 (read-out: EC50) is reported as ≥ 10 µM.

In the case of `Cn1cc2c(-c3cc(F)c(CN4CC(C(=O)N[C@H]5CCCC[C@@H]5O)Oc5ccccc54)c(F)c3)cccc2n1` (stereo partly drawn) [Compound B6, 4-(2,6-difluoro-4-(2-methyl-2H-indazol-4-yl)benzyl)-N-((1S,2S)-2-hydroxycyclohexyl)-3,4-dihydro-2H-benzo[b][1,4]oxazine-2-carboxamide], the EC50 (read-out: EC50) is reported as ≥ 10 µM.

With `Cn1cc(-c2ccc(CN3CC(C(=O)N[C@H]4CCCC[C@@H]4O)Oc4ccccc43)cc2)cn1` (stereo partly drawn) [Compound B7] the EC50 (read-out: EC50) was > 30 µM.

With `O=C(N[C@H]1CCCC[C@@H]1O)C1CN(Cc2ccc(Cl)nc2)c2ccccc2O1` (stereo partly drawn) [Compound B8] the EC50 (read-out: EC50) was 4.21 µM.

`CC(C)CNC(=O)C1CN(Cc2ccc(-n3cccn3)cc2)c2ccccc2O1` (stereo not drawn) [Compound B11] showed an EC50 (read-out: EC50) of 3.56 µM.

For `O=C(NCc1ccccn1)C1CN(Cc2ccc(-n3cccn3)cc2)c2ccccc2O1` (stereo not drawn) [Compound B12], the EC50 (read-out: EC50) was 4.82 µM.

With `COC(=O)CNC(=O)C1CN(Cc2ccc(-n3cccn3)cc2)c2ccccc2O1` (stereo not drawn) [Compound B13] the EC50 (read-out: EC50) was 1.44 µM.

With `O=C(Nc1ccccc1O)C1CN(Cc2ccc(-n3cccn3)cc2)c2ccccc2O1` (stereo not drawn) [Compound B14] the EC50 (read-out: EC50) was ≥ 10 µM.

For `O=C(Nc1ccccn1)C1CN(Cc2ccc(-n3cccn3)cc2)c2ccccc2O1` (stereo not drawn) [Compound B15], the EC50 (read-out: EC50) was ≥ 10 µM.

With `CC(C)(CO)NC(=O)C1CN(Cc2ccc(-n3cccn3)cc2)c2ccccc2O1` (stereo not drawn) [Compound B16] the EC50 (read-out: EC50) was > 30 µM.

In the case of `O=C(NC1CC1)C1CN(Cc2ccc(-n3cccn3)cc2)c2ccccc2O1` (stereo not drawn) [Compound B17], the EC50 (read-out: EC50) is reported as ≥ 10 µM.

With `O=C(NC1CCCCC1)C1CN(Cc2ccc(-n3cccn3)cc2)c2ccccc2O1` (stereo not drawn) [Compound B18] the EC50 (read-out: EC50) was ≥ 10 µM.

Compound `CNC(=O)C1CN(Cc2ccc(-n3cccn3)cc2)c2ccccc2O1` (stereo not drawn) [Compound B21] has an EC50 (read-out: EC50) of 5.36 µM.

For `CC(C)NC(=O)C1CN(Cc2ccc(-n3cccn3)cc2)c2ccccc2O1` (stereo not drawn) [Compound B22], the EC50 (read-out: EC50) was ≥ 10 µM.

In the case of `O=C(NC1CCOC1)C1CN(Cc2ccc(-n3cccn3)cc2)c2ccccc2O1` (stereo not drawn) [Compound B23], the EC50 (read-out: EC50) is reported as ≥ 10 µM.

`O=C(NCCCN1CCOCC1)C1CN(Cc2ccc(-n3cccn3)cc2)c2ccccc2O1` (stereo not drawn) [Compound B24] was tested, and the EC50 (read-out: EC50) was ≥ 10 µM.

For `COc1ccc(OCCNC(=O)C2CN(Cc3ccc(-n4cccn4)cc3)c3ccccc3O2)cc1` (stereo not drawn) [Compound B25], the EC50 (read-out: EC50) was > 30 µM.

In the case of `O=C(NCC(F)(F)F)C1CN(Cc2ccc(-n3cccn3)cc2)c2ccccc2O1` (stereo not drawn) [Compound B26], the EC50 (read-out: EC50) is reported as > 30 µM.

`O=C(NC1CCC1)C1CN(Cc2ccc(-n3cccn3)cc2)c2ccccc2O1` (stereo not drawn) [Compound B27] was tested, and the EC50 (read-out: EC50) was 7.66 µM.

`O=C(NC1CCCC1)C1CN(Cc2ccc(-n3cccn3)cc2)c2ccccc2O1` (stereo not drawn) [Compound B28] was tested, and the EC50 (read-out: EC50) was ≥ 10 µM.

Work on `O=C(NC1CCOCC1)C1CN(Cc2ccc(-n3cccn3)cc2)c2ccccc2O1` (stereo not drawn) [Compound B30] yielded an EC50 (read-out: EC50) of 4.43 µM.

For `O=C(Nc1ccccc1)C1CN(Cc2ccc(-n3cccn3)cc2)c2ccccc2O1` (stereo not drawn) [Compound B31], the EC50 (read-out: EC50) was > 30 µM.

`NC(=O)C1CN(Cc2ccc(-n3cccn3)cc2)c2ccccc2O1` (stereo not drawn) [Compound B32] showed an EC50 (read-out: EC50) of 3.3 µM.

`O=C(NCCO)C1CN(Cc2ccc(-n3cccn3)cc2)c2ccccc2O1` (stereo not drawn) [Compound B33] showed an EC50 (read-out: EC50) of 6.54 µM.

`CC1(NC(=O)C2CN(Cc3ccc(-n4cccn4)cc3)c3ccccc3O2)COC1` (stereo not drawn) [Compound B34] was tested, and the EC50 (read-out: EC50) was > 30 µM.

`C[C@@H](CO)NC(=O)C1CN(Cc2ccc(-n3cccn3)cc2)c2ccccc2O1` (stereo partly drawn) [Compound B35] showed an EC50 (read-out: EC50) of 4.66 µM.

With `CC(C)(O)CNC(=O)C1CN(Cc2ccc(-n3cccn3)cc2)c2ccccc2O1` (stereo not drawn) [Compound B36] the EC50 (read-out: EC50) was 3.8 µM.

`O=C(NC1CCCOC1)C1CN(Cc2ccc(-n3cccn3)cc2)c2ccccc2O1` (stereo not drawn) [Compound B37] was tested, and the EC50 (read-out: EC50) was ≥ 10 µM.

With `O=C(NCCOc1ccccc1F)C1CN(Cc2ccc(-n3cccn3)cc2)c2ccccc2O1` (stereo not drawn) [Compound B38] the EC50 (read-out: EC50) was > 30 µM.

In the case of `COc1ccccc1OCCNC(=O)C1CN(Cc2ccc(-n3cccn3)cc2)c2ccccc2O1` (stereo not drawn) [Compound B39], the EC50 (read-out: EC50) is reported as > 30 µM.

For `O=C(NCCOc1ccc(F)cc1)C1CN(Cc2ccc(-n3cccn3)cc2)c2ccccc2O1` (stereo not drawn) [Compound B40], the EC50 (read-out: EC50) was > 30 µM.

Work on `O=C(N[C@H]1CCCC[C@@H]1O)C1CN(Cc2ccc(C(F)(F)F)nc2)c2ccccc2O1` (stereo partly drawn) [Compound B42] yielded an EC50 (read-out: EC50) of 4.7 µM.

For `COCC(C)NC(=O)C1CN(Cc2ccc(-n3cccn3)cc2)c2ccccc2O1` (stereo not drawn) [Compound B43], the EC50 (read-out: EC50) was ≥ 10 µM.

In the case of `O=C(N[C@@H](CO)[C@H](O)c1ccccc1)C1CN(Cc2ccc(-n3cccn3)cc2)c2ccccc2O1` (stereo partly drawn) [Compound B44], the EC50 (read-out: EC50) is reported as ≥ 10 µM.

In the case of `O=C(Nc1cccc2cn[nH]c12)C1CN(Cc2ccc(-n3cccn3)cc2)c2ccccc2O1` (stereo not drawn) [Compound B45], the EC50 (read-out: EC50) is reported as 7.38 µM.

Work on `O=C(NCC(O)C(F)(F)F)C1CN(Cc2ccc(-n3cccn3)cc2)c2ccccc2O1` (stereo not drawn) [Compound B46] yielded an EC50 (read-out: EC50) of 2.28 µM.

In the case of `O=C(Nc1ccn[nH]1)C1CN(Cc2ccc(-n3cccn3)cc2)c2ccccc2O1` (stereo not drawn) [Compound B47], the EC50 (read-out: EC50) is reported as > 30 µM.

`COc1cccnc1NC(=O)C1CN(Cc2ccc(-n3cccn3)cc2)c2ccccc2O1` (stereo not drawn) [Compound B48] was tested, and the EC50 (read-out: EC50) was 2.4 µM.

In the case of `O=C(Nc1ncc(F)cc1F)C1CN(Cc2ccc(-n3cccn3)cc2)c2ccccc2O1` (stereo not drawn) [Compound B49], the EC50 (read-out: EC50) is reported as ≥ 10 µM.

`O=C(Nc1ncccc1F)C1CN(Cc2ccc(-n3cccn3)cc2)c2ccccc2O1` (stereo not drawn) [Compound B50] showed an EC50 (read-out: EC50) of 2.57 µM.

With `COCCNC(=O)C1CN(Cc2ccc(-n3cccn3)cc2)c2ccccc2O1` (stereo not drawn) [Compound B51] the EC50 (read-out: EC50) was 7.65 µM.

With `O=C(NCC(F)F)C1CN(Cc2ccc(-n3cccn3)cc2)c2ccccc2O1` (stereo not drawn) [Compound B52] the EC50 (read-out: EC50) was ≥ 10 µM.

For `Cc1ccc(NC(=O)C2CN(Cc3ccc(-n4cccn4)cc3)c3ccccc3O2)c(O)c1` (stereo not drawn) [Compound B53], the EC50 (read-out: EC50) was > 30 µM.

With `O=C(N[C@H]1CCC[C@@H]1O)C1CN(Cc2ccc(-n3cccn3)cc2)c2ccccc2O1` (stereo partly drawn) [Compound B54] the EC50 (read-out: EC50) was 1.15 µM.

With `O=C(Nc1ccccc1F)C1CN(Cc2ccc(-n3cccn3)cc2)c2ccccc2O1` (stereo not drawn) [Compound B55] the EC50 was ≥ 10 µM.

For `Cc1ccccc1NC(=O)C1CN(Cc2ccc(-n3cccn3)cc2)c2ccccc2O1` (stereo not drawn) [Compound B56], the EC50 (read-out: EC50) was ≥ 10 µM.

`O=C(N[C@H]1CCCC[C@@H]1O)C1CN(Cc2ccc(C(F)(F)F)nc2)c2cccc(F)c2O1` (stereo partly drawn) [Compound B57, 8-fluoro-N-((1S,2S)-2-hydroxycyclohexyl)-4-((6-(trifluoromethyl)pyridin-3-yl)methyl)-3,4-dihydro-2H-benzo[b][1,4]oxazine-2-carboxamide] gave an EC50 (read-out: EC50) of 3.6 µM.
